Results taken from the NIST ThermoML archive (doi:10.1021/je5004669).

Conditions: 101.33 kPa, Liquid; for mass density: Vibrating tube method; for viscosity: Capillary tube (Ostwald / Ubbelohde) method

CCCN.CCCN.O=S(=O)([N-]S(=O)(=O)C(F)(F)F)C(F)(F)F.[Ag+]
Conditions | mass density [kg/m3] | viscosity [mPa·s]
293 K | 1637.5 | –
293.2 K | – | 46.09
298 K | 1632 | –
298.1 K | – | 36
303 K | 1626.3 | –
303.2 K | – | 31.07
308.2 K | – | 27.03
313 K | 1614.7 | –
313.2 K | – | 25.28
318.3 K | – | 21.28
323 K | 1603.5 | –
323.2 K | – | 18.21
328.2 K | – | 15.85
333 K | 1592.3 | –
333.2 K | – | 14.84
